Test results taken from US20240342157A1, “BAK ACTIVATORS, PHARMACEUTICAL COMPOSITIONS, AND USES IN TREATING CANCER” (Emory University, priority 2021, published 2024).

Legend:
[1] = tested on: KRAS G12D LKB1fl/fl (KL) mice; test: mutant KRAS-driven lung cancer GEMM; format: in vivo; details: 15 mg/kg/d i.p., control 4 of 6, p<0.01
Description: After administration of adenovirus Cre recombinase in KRAS G12D LKB1fl/fl (KL) mice for 6 weeks, KL mice were treated with KRA-073 (15 mg/kg/d) i.p. for 48 days (n=6 mice/group). Survival of mice is shown for up to 48 days before euthanization in the control group versus the BKA-073 treatment group.
To assess the potency of BKA-073 in KRAS mutant driven lung cancer, lox-stop-lox (LSL)-KRAS G12D LKB1fl/fl (i.e. KL) mice were generated and bred. These mice contain a KRAS G12D LSL knock-in allele and a floxed allele of LKB1 (LKB1fl/fl). Primary lung adenocarcinoma was detectable as early as 6 weeks after intranasal administration of 5×10^6 pfu adenovirus expressing Cre recombinase (AdeCre) in KRAS G12D LKB1fl/fl (KL) mice.
To further assess the potential of BKA-073 as therapy for mutant KRAS-driven lung cancer, BKA-073 (15 mg/kg/d) or vehicle was administered to KL mice i.p. starting at 6 weeks post AdeCre delivery. […] To quantify tumor burden and tumor multiplicity in mice, H&E-stained lungs were imaged with morphometric software to quantify the surface area composed of tumor as opposed to normal tissue compared with the control group. There were 4 deaths out of 6 mice in the control group versus 2 deaths out of 6 mice in the BKA-073 treatment group (p<0.01), calculated up to 48 days before euthanization (FIG. 5).

[2] = tested on: A549 lung cancer xenografts; test: A549 lung cancer xenografts; format: in vivo
Description: Nu/Nu mice bearing A549 lung cancer xenografts were treated with increasing doses of BKA-073 (5 to 15 mg/kg/d) i.p. for 28 days. Tumor volume was measured once every 2 days. After treatment, mice were sacrificed, and tumors were removed and analyzed.
To test the potency of BKA-073 in vivo, mice carrying lung cancer xenografts derived from A549 cells were treated i.p. with increasing doses (0, 5, 10, 15 mg/kg/d) of BKA-073 for 28 days. […] To assess whether BKA-073 induced suppression of tumor growth occurs through activation of Bak and apoptosis in vivo, representative samples from harvested tumor tissues were analyzed by cross-linking with BMH for Bak oligomerization or by immunohistochemistry (IHC) for active caspase 3. […] Doses between 5 mg/kg and 15 mg/kg provide an optimal therapeutic index for BKA-073 for in vivo experimentation involving lung cancer xenografts.

[3] = tested on: Bak−/− and DKO A549 cells; test: apoptotic cell death in Bak knockout cells; format: cell-based, human
Source text: Bak is a pro-apoptotic protein required for programmed cell death and apoptosis induction in cancer cells. […] Experiments indicate that BKA-073 directly binds to Bak protein and induces Bak oligomerization in mitochondria leading to activation of a proapoptotic function. Experiments indicate that BKA-073-induced Bak oligomerization promotes mitochondrial priming and Cyt c release, which are early changes in net pro-apoptotic signaling at the mitochondria. BKA-073-induced mitochondrial priming and Cyt c release leads to apoptotic cell death of lung cancer cells.
Several Bax/Bak-independent mechanisms of apoptotic cell death have been described. […] It is contemplated that, in addition to the major Bak-dependent apoptosis mechanism, BKA-073 induces a small proportion of apoptotic cell death (about 20%) through Bax/Bak-independent mechanism(s).

## COc1ccc2nc3ccccc3c(NCCNCC(C)O)c2c1 (stereo not shown) [BKA-073, 1-((2-((2-methoxyacridin-9-yl)amino)ethyl)amino)propan-2-ol]
[1]
  deaths up to 48 days: 2 deaths out of 6 mice
[2]; 5 to 15 mg/kg/d
  tolerability: well tolerated without significant toxicity
[2]; dose range between 5 and 15 mg/kg/day
  weight loss and organ toxicities: without weight loss or significant organ toxicities
[3]
  apoptotic cell death: about 20%
